Columns and labels:
[1] = tested on: patients having colorectal cancer; assay: NHIRD statistical analysis of death/survival with vs without Amlodipine, colorectal cancer; type: in vivo, human
Hep3B cells [2] = assay: Western blotting of apoptosis-related proteins, Hep3B; type: cell-based; conditions: various concentrations, 24 hours
Description: (§1) The expression of apoptosis-related genes in each liver cancer cell line treated with various concentrations of Amlodipine for 24 hours were detected by Western blotting.

HepG2 cells [3] = assay: Western blotting of apoptosis-related proteins, HepG2; type: cell-based; conditions: various concentrations, 24 hours
Description: as §1

[4] = tested on: patients having lung cancer; assay: NHIRD statistical analysis of death/survival with vs without Amlodipine, lung cancer; type: in vivo, human
[5] = tested on: patients having cervical cancer; assay: NHIRD statistical analysis of death/survival with vs without Amlodipine, cervical cancer; type: in vivo, human
Hep3B cells [6] = assay: Cell metastasis (Transwell, Calcein AM fluorescence), Hep3B; type: cell-based; conditions: 10 μM, 48 or 72 hrs
Description: (§2) The HepG2 and Hep3B cells were separately cultured in an insert of the Transwell plate, then added with 10 μM Amlodipine and cultured for 48 or 72 hrs. The insert was placed in a serum-free DMEM medium containing […] Calcien AM. Fluorescent staining was carried out in a culture environment at 37° C. After about 45-60 min, the cells were scraped off with 0.05% Trypsin-EDTA, and the fluorescence intensity at a wavelength of 490 to 520 nm was measured.

HepG2 cells [7] = assay: Cell metastasis (Transwell, Calcein AM fluorescence), HepG2; type: cell-based; conditions: 10 μM, 48 or 72 hrs
Description: as §2

[8] = tested on: patients having breast cancer; assay: NHIRD statistical analysis of death/survival with vs without Amlodipine, breast cancer; type: in vivo, human
[9] = tested on: patients with gastric cancer; assay: NHIRD statistical analysis of death/survival with vs without Amlodipine, gastric cancer; type: in vivo, human
Description: In this example, statistical analysis was performed on the statistics of the effects of Amlodipine in the treatment of cancers, using data from the National Health Insurance Research Database (NHIRD) covering detailed healthcare data for the population in Taiwan. Then, the diagnostic data at the time of admission in the database and the database of patients with registered major injuries were used, and statistical analysis was performed using data from patients with gastric cancer.
The dose of Amlodipine used in Example 1 was at least 120 mg/30 days. Therefore, in order to obtain the minimum effective dose, the survival rate of patients treated with Amlodipine for days in 90 days after cancer diagnosis was further statistically analyzed.

[10] = tested on: patients having pancreatic cancer; assay: NHIRD statistical analysis of death/survival with vs without Amlodipine, pancreatic cancer; type: in vivo, human
[11] = 24/30: Amlodipine at least 24 days within 30 days after cancer diagnosis
[12] = 48/60: Amlodipine at least 48 days within 60 days after cancer diagnosis
[13] = Amlodipine for 20 days within 90 days after diagnosis
[14] = day of treatment with Amlodipine 72/9
[15] = 72/90: Amlodipine at least 72 days within 90 days after cancer diagnosis

CCOC(=O)C1=C(COCCN)NC(C)=C(C(=O)OC)C1c1ccccc1Cl (stereo not shown) [Amlodipine]
Crude HR HRs (95% C.I.) [1, 11]: 0.46 (0.44-0.49)
Crude HR HRs (95% C.I.) [1, 12]: 0.44 (0.42-0.47)
Crude HR HRs (95% C.I.) [1, 13]: 0.76 (0.72-0.80)
Crude HR HRs (95% C.I.) [1, 14]: 0.44 (0.42-0.47)
intracellular expression of apoptotic proteins (Western blotting) (Hep3B cells [2]): results in the intracellular expression of apoptotic proteins
intracellular expression of apoptotic proteins (Western blotting) (HepG2 cells [3]): results in the intracellular expression of apoptotic proteins
Crude HR HRs (95% C.I.) [4, 11]: 0.66 (0.62-0.70)
Crude HR HRs (95% C.I.) [4, 12]: 0.62 (0.58-0.67)
Crude HR HRs (95% C.I.) [4, 13]: 0.85 (0.80-0.90)
Crude HR HRs (95% C.I.) [4, 14]: 0.62 (0.58-0.66)
Crude HR HRs (95% C.I.) [5, 11]: 0.50 (0.46-0.55)
Crude HR HRs (95% C.I.) [5, 12]: 0.51 (0.46-0.56)
Crude HR HRs (95% C.I.) [5, 15]: 0.46 (0.42-0.51)
Crude HR HRs (95% C.I.) [5, 13]: 1.00 (0.89-1.11)
fluorescence intensity (cell metastasis) vs cells not treated with Amlodipine (Hep3B cells [6]): lower
fluorescence intensity (cell metastasis) vs cells not treated with Amlodipine (HepG2 cells [7]): lower
Crude HR HRs (95% C.I.) [8, 11]: 0.54 (0.50-0.59)
Crude HR HRs (95% C.I.) [8, 12]: 0.53 (0.48-0.57)
Crude HR HRs (95% C.I.) [8, 15]: 0.50 (0.46-0.55)
Crude HR HRs (95% C.I.) [8, 13]: 0.91 (0.83-0.99)
Crude HR HRs (95% C.I.) [9, 11]: 0.43 (0.39-0.47)
Crude HR HRs (95% C.I.) [9, 12]: 0.43 (0.39-0.48)
Crude HR HRs (95% C.I.) [9, 15]: 0.42 (0.38-0.47)
Crude HR HRs (95% C.I.) [9, 13]: 0.73 (0.66-0.80)
Crude HR HRs (95% C.I.) [10, 11]: 0.62 (0.51-0.75)
Crude HR HRs (95% C.I.) [10, 12]: 0.63 (0.51-0.77)
Crude HR HRs (95% C.I.) [10, 15]: 0.71 (0.57-0.88)
Crude HR HRs (95% C.I.) [10, 13]: 0.77 (0.65-0.93)
